The results in this text go back to US10654837B2, “Sulphamoylaryl derivatives and use thereof as medicaments for the treatment of liver fibrosis” (Janssen Pharmaceutica NV, priority 2017, dated 2020).

The IC50 is the concentration at which inhibition is half-maximal.

The experiment has as its target T1, 5HTR2B (Homo sapiens, UniProt P41595).
T1 construct: host or cells: human Maverick/293 cells
Nature of the experiment: 5HTR2B antagonist activity, calcium mobilization assay in human Maverick/293 cells (serotonin as agonist). Conditions: intracellular calcium, emission 525 nm, read-out: Ca assay IC50. Format: cell-based. Put shortly: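 Serum-starved (2 h) human Maverick/293 cells loaded with calcium dye for 50 min at 37 °C, then antagonist preincubated 15-30 min before serotonin challenge. Calcium fluorescence (ex 485/em 525 nm) recorded for 80 s; peak-based % inhibition fitted sigmoidally for IC50.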
In general terms: A change in cytosolic calcium serves as a functional read-out for many receptors and channels.

T1 sequence (P41595 whole entry): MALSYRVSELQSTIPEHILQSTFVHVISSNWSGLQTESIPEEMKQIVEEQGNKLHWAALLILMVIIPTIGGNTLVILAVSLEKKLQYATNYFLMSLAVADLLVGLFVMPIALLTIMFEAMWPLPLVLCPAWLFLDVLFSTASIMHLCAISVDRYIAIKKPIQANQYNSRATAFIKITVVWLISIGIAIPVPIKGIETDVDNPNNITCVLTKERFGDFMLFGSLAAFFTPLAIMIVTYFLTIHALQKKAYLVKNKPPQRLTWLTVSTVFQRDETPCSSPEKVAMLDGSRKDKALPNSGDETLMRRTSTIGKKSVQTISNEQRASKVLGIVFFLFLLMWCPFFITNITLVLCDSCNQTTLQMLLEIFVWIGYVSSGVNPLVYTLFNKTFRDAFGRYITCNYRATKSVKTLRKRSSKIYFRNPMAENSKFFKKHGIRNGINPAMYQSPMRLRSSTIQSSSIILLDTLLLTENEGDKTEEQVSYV

In the case of `COc1ccc(S(=O)(=O)NC(C)C)cc1C(=O)Nc1ccc(F)c(C)n1` [Compound 25, N-(5-Fluoro-6-methylpyridin-2-yl)-5-(N-isopropylsulfamoyl)-2-methoxy benzamide], the IC50 came out at 1.4 nM.

For `COc1ccc(S(=O)(=O)N[C@H]2CCNC2)cc1C(=O)Nc1ccc(F)cc1F` [Compound 182], the IC50 was 0.3 nM.

For the compound `COc1ccc(S(=O)(=O)N[C@H]2CCOC2)cc1C(=O)Nc1cc(F)ccc1Cl` [Compound 70, (S)—N-(2-Chloro-5-fluorophenyl)-2-methoxy-5-(N-(tetrahydrofuran-3-yl)sulfamoyl)benzamide], the IC50 was found to be 0.3 nM.

With `COc1ccc(S(=O)(=O)N[C@@H]2CCNC2)cc1C(=O)Nc1ccc(F)cc1` [Compound 180, (R)—N-(4-Fluorophenyl)-2-methoxy-5-(N-(pyrrolidin-3-yl)sulfamoyl)benzamide], the half-maximal inhibitory concentration (IC50) was 3.3 nM.

In the case of `COc1ccc(S(=O)(=O)N[C@H]2CCOC2)cc1C(=O)Nc1c(F)cccc1Cl` [Compound 103, (S)—N-(2-Chloro-6-fluorophenyl)-2-methoxy-5-(N-(tetrahydrofuran-3-yl)sulfamoyl)benzamide], the half-maximal inhibitory concentration (IC50) was 8.4 nM.

With `COc1ccc(S(=O)(=O)N[C@H](C)C(N)=O)cc1C(=O)Nc1ccc(F)c(C)c1` [Compound 12b, (R)-5-(N-(1-Amino-1-oxopropan-2-yl)sulfamoyl)-N-(4-fluoro-3-methylphenyl)-2-methoxybenzamide], the half-maximal inhibitory concentration (IC50) was 122 nM.

Turning to `[2H]C([2H])([2H])Oc1ccc(S(=O)(=O)N[C@H]2CCOC2)cc1C(=O)Nc1ccc(F)c(C(F)F)c1` [Compound 192, (S)—N-(3-(Difluoromethyl)-4-fluorophenyl)-2-(methoxy-d3)-5-(N-(tetrahydrofuran-3-yl)sulfamoyl)benzamide], the IC50 turned out to be 0.4 nM.

Turning to `[2H]C([2H])([2H])Oc1ccc(S(=O)(=O)N[C@H]2CCOC2)cc1C(=O)Nc1ccc(F)cn1` [Compound 193, (S)—N-(5-fluoropyridin-2-yl)-2-(methoxy-d3)-5-(N-(tetrahydrofuran-3-yl)sulfamoyl)benzamide], the IC50 was found to be 3.2 nM.

`COc1ccc(S(=O)(=O)N[C@H]2C[C@H](O)C2)cc1C(=O)Nc1ccc(F)cc1Cl` [Compound 144a, N-(2-chloro-4-fluorophenyl)-5-(N-((trans)-3-hydroxycyclobutyl)sulfamoyl)-2-methoxybenzamide]: the IC50 is 0.5 nM.

For the compound `COc1ccc(S(=O)(=O)N[C@H](C)C(N)=O)cc1C(=O)Nc1ccc(F)cc1` [Compound 46a, (R)-5-(N-(1-Amino-1-oxopropan-2-yl)sulfamoyl)-N-(4-fluorophenyl)-2-methoxybenzamide], the IC50 was found to be 1.5 nM.

As for `COc1ccc(S(=O)(=O)N[C@H]2CCOC2)cc1C(=O)Nc1cc(Cl)cc(C#N)c1` [Compound 94, (S)—N-(3-Chloro-5-cyanophenyl)-2-methoxy-5-(N-(tetrahydrofuran-3-yl)sulfamoyl)benzamide], the IC50 came out at 12 nM.

For `[2H]C([2H])([2H])Oc1ccc(S(=O)(=O)N[C@H]2CCOC2)cc1C(=O)Nc1ccc(F)c(C)c1` [Compound 191, (S)—N-(4-fluoro-3-methylphenyl)-2-(methoxy-d3)-5-(N-(tetrahydrofuran-3-yl)sulfamoyl)benzamide], the IC50 was determined as 1.1 nM.

Regarding `COc1ccc(S(=O)(=O)N[C@@H](C)CO)cc1C(=O)Nc1ccc(F)cc1` [Compound 49a, (S)—N-(4-Fluorophenyl)-5-(N-(1-hydroxypropan-2-yl)sulfamoyl)-2-methoxybenzamide], the IC50 turned out to be 3.4 nM.

In the case of `COc1ccc(S(=O)(=O)N[C@H]2CCOC2)cc1C(=O)Nc1ccc(Br)cc1` [Compound 125, (S)—N-(4-Bromophenyl)-2-methoxy-5-(N-(tetrahydrofuran-3-yl)sulfamoyl) benzamide], the IC50 was 28 nM.

Consider `COc1ccc(S(=O)(=O)N[C@H]2CCN(C)C2)cc1C(=O)Nc1ccc(F)c(C)n1` [Compound 176, (S)—N-(5-Fluoro-6-methylpyridin-2-yl)-2-methoxy-5-(N-(1-methylpyrrolidin-3-yl)sulfamoyl)benzamide], for which the IC50 was 5 nM.

`COc1ccc(S(=O)(=O)N[C@H]2CCOC2)cc1C(=O)Nc1ccccc1C#N` [Compound 164]: the IC50 was 1.1 nM.

Take `COc1ccc(S(=O)(=O)N[C@@H](C)CO)cc1C(=O)Nc1ccc(F)c(C)c1` [Compound 10a, (S)—N-(4-Fluoro-3-methylphenyl)-5-(N-(1-hydroxypropan-2-yl)sulfamoyl)-2-methoxybenzamide]: the IC50 was found to be 4.5 nM.

Turning to `COc1ccc(S(=O)(=O)NCC(O)C(F)(F)F)cc1C(=O)Nc1ccc(F)cc1` (single isomer, unassigned) [Compound 44b, (R*)—N-(4-Fluorophenyl)-2-methoxy-5-(N-(3,3,3-trifluoro-2-hydroxypropyl)sulfamoyl)benzamide], the half-maximal inhibitory concentration (IC50) was 3.2 nM.

`COc1ccc(S(=O)(=O)N[C@@H]2CCNC2)cc1C(=O)Nc1ccc(F)c(C(F)F)c1` [Compound 181]: the IC50 was 4.5 nM.

In the case of `COc1ccc(S(=O)(=O)N[C@H]2CCNC2)cc1C(=O)Nc1ccc(F)c(C)c1` [Compound 187, (S)—N-(4-fluoro-3-methylphenyl)-2-methoxy-5-(N-(pyrrolidin-3-yl)sulfamoyl) benzamide], the IC50 is 0.7 nM.

Consider `COc1ccc(S(=O)(=O)N[C@H]2CCOC2)cc1C(=O)Nc1ccccc1Cl` [Compound 127, (S)—N-(2-Chlorophenyl)-2-methoxy-5-(N-(tetrahydrofuran-3-yl)sulfamoyl) benzamide], for which the IC50 turned out to be 0.1 nM.

As for `COc1ccc(S(=O)(=O)N[C@@H]2CC[C@H](O)C2)cc1C(=O)Nc1ccc(F)c(C(F)F)c1` (single isomer, unassigned) [Compound 33a, N-(3-(Difluoromethyl)-4-fluorophenyl)-5-(N-((cis)-3-hydroxycyclopentyl)sulfamoyl)-2-methoxybenzamide], the IC50 was 0.4 nM.

`COc1ccc(S(=O)(=O)N[C@H]2CCOC2)cc1C(=O)Nc1ncc(C)s1` [Compound 84, (S)-2-methoxy-N-(5-methylthiazol-2-yl)-5-(N-(tetrahydrofuran-3-yl)sulfamoyl) benzamide]: the IC50 was 716 nM.

Consider `COc1ccc(S(=O)(=O)N[C@H]2CCOC2)cc1C(=O)Nc1cccc(F)c1F` [Compound 113, (S)—N-(2,3-Difluorophenyl)-2-methoxy-5-(N-(tetrahydrofuran-3-yl)sulfamoyl) benzamide], for which the IC50 stood at 17 nM.

On to `COc1ccc(S(=O)(=O)NC(C)CO)cc1C(=O)Nc1ccc(F)c(C)c1` (stereo not shown) [Compound 10, N-(4-Fluoro-3-methylphenyl)-5-(N-(1-hydroxypropan-2-yl)sulfamoyl)-2-methoxybenzamide], for which the IC50 turned out to be 4.5 nM.

Consider `COc1ccc(S(=O)(=O)N[C@@H](C)CO)cc1C(=O)Nc1ccc(F)c(C(F)F)c1` [Compound 35a, (S)—N-(3-(Difluoromethyl)-4-fluorophenyl)-5-(N-(1-hydroxypropan-2-yl)sulfamoyl)-2-methoxybenzamide], for which the IC50 was 0.7 nM.

For the compound `COc1ccc(S(=O)(=O)N[C@H]2CCOC2)cc1C(=O)Nc1cc(F)c(C#N)cc1F` [Compound 98, (S)—N-(4-Cyano-2,5-difluorophenyl)-2-methoxy-5-(N-(tetrahydrofuran-3-yl)sulfamoyl)benzamide], the IC50 came to 37 nM.

`COc1ccc(S(=O)(=O)N[C@H]2CCOC2)cc1C(=O)Nc1ccc(F)cc1F` [Compound 65, (S)—N-(2,4-Difluorophenyl)-2-methoxy-5-(N-(tetrahydrofuran-3-yl)sulfamoyl) benzamide]: the IC50 worked out at 0.34 nM.

As to `COc1ccc(S(=O)(=O)N[C@@H](C)C(N)=O)cc1C(=O)Nc1ccccc1Cl` [Compound 59a], the IC50 was determined as 0.2 nM.

Regarding `COc1ccc(S(=O)(=O)N[C@H]2CCOC2)cc1C(=O)Nc1c(F)cc(Cl)cc1F` [Compound 91, (S)—N-(4-Chloro-2,6-difluorophenyl)-2-methoxy-5-(N-(tetrahydrofuran-3-yl)sulfamoyl)benzamide], the IC50 is 92 nM.

As to `COc1ccc(S(=O)(=O)NC2COC2)cc1C(=O)Nc1ccccc1Cl` [Compound 62, N-(2-Chlorophenyl)-2-methoxy-5-(N-(oxetan-3-yl)sulfamoyl)benzamide], the IC50 amounted to 0.1 nM.

For the compound `[2H]C([2H])([2H])Oc1ccc(S(=O)(=O)N[C@H]2CCOC2)cc1C(=O)Nc1ccc(F)cc1` [Compound 190, (S)—N-(4-fluorophenyl)-2-(methoxy-d3)-5-(N-(tetrahydrofuran-3-yl)sulfamoyl) benzamide], the IC50 turned out to be 0.9 nM.

On to `COc1ccccc1NC(=O)c1cc(S(=O)(=O)N[C@H]2CCOC2)ccc1OC` [Compound 166, (S)-2-Methoxy-N-(2-methoxyphenyl)-5-(N-(tetrahydrofuran-3-yl)sulfamoyl) benzamide], for which the IC50 is 0.16 nM.

For the compound `COc1ccc(S(=O)(=O)N[C@H]2CCOC2)cc1C(=O)Nc1ccc(Cl)cc1Cl` [Compound 85, (S)—N-(2,4-Dichlorophenyl)-2-methoxy-5-(N-(tetrahydrofuran-3-yl)sulfamoyl) benzamide], the IC50 turned out to be 1.5 nM.

As to `COc1ccc(S(=O)(=O)NC2CCCCC2)cc1C(=O)Nc1ccc(F)c(C)n1` [Compound 20, 5-(N-Cyclohexylsulfamoyl)-N-(5-fluoro-6-methylpyridin-2-yl)-2-methoxy benzamide], the IC50 is 4.4 nM.

Regarding `COc1ccc(S(=O)(=O)NCC(O)C(F)(F)F)cc1C(=O)Nc1ccc(F)c(C)n1` (single isomer, unassigned) [Compound 23b, (S*)—N-(5-fluoro-6-methylpyridin-2-yl)-2-methoxy-5-(N-(3,3,3-trifluoro-2-hydroxypropyl)sulfamoyl)benzamide], the IC50 came to 5 nM.

In the case of `Cc1nc(NC(=O)c2cc(S(=O)(=O)N[C@H]3CCOC3)ccc2OC(C)C)ccc1F` [Compound 197, (S)—N-(5-fluoro-6-methylpyridin-2-yl)-2-isopropoxy-5-(N-(tetrahydrofuran-3-yl)sulfamoyl)benzamide], the concentration for half-maximal inhibition (IC50) stood at 5.3 nM.
